ChEMBL document CHEMBL2396560, “Discovery of (R)-4-cyclopropyl-7,8-difluoro-5-(4-(trifluoromethyl)phenylsulfonyl)-4,5-dihydro-1H-pyrazolo[4,3-c]quinoline (ELND006) and (R)-4-cyclopropyl-8-fluoro-5-(6-(trifluoromethyl)pyridin-3-ylsulfonyl)-4,5-dihydro-2H-pyrazolo[4,3-c]quinoline (ELND007): metabolically stable γ-secretase …” (J Med Chem, 2013)
Values after ≈ are worked out from the molar mass of the structure shown.

How the values were obtained:
Brain [1] = assay: AUC (0 to 3 hrs) in FVB mouse brain at 1 mg/kg, po; assay type: ADME, organism-based; design: time < 3 hr, dose 1 mg/kg, route oral; conditions: in vivo
Plasma [2] = assay: AUC (0 to 3 hrs) in FVB mouse plasma at 3 mg/kg, po; assay type: ADME, organism-based; design: time < 3 hr, dose 3 mg/kg, route oral; conditions: in vivo
Mus musculus [3] = assay: Toxicity in FVB mouse assessed as thymus atrophy compound administered orally bid for 7 days; assay type: organism-based; conditions: in vivo, po, 168 h
Liver [4] = assay: Glucuronidation metabolism in dog liver microsomes assessed as compound remaining; assay type: ADME, Canis lupus familiaris, Microsome
Plasma [5] = assay: AUC (0 to 3 hrs) in FVB mouse plasma at 10 mg/kg, po; assay type: ADME, organism-based; design: time < 3 hr, dose 10 mg/kg, route oral; conditions: in vivo
Liver microsomes [6] = assay: Oxidative metabolism in rat liver microsomes assessed as compound remaining; assay type: ADME, Microsome
Mus musculus [7] = assay: Toxicity in FVB mouse assessed as effect on Hes-1 mRNA level in thymus at 3 mg/kg, po administered as single dose measured at 3 hrs; assay type: organism-based; design: dose 3 mg/kg, route oral; conditions: in vivo
Liver microsomes [8] = assay: Oxidative metabolism in human liver microsomes assessed as compound remaining; assay type: ADME, Microsome
Gamma-secretase [9] = assay: Inhibition of partially purified human gamma-secretase-mediated cleavage of MBP-APPc125Sw fusion protein measured after overnight incubation by ELISA; assay type: protein-complex assay
Gamma-secretase [10] = assay: Inhibition of partially purified human gamma-secretase-mediated cleavage of notch fusion protein measured after overnight incubation by ELISA; assay type: protein-complex assay
[11] = Drug uptake in FVB mouse brain at 10 mg/kg, po at 3 hrs; assay type: ADME, organism-based; design: dose 10 mg/kg, route oral; conditions: read-out: Drug uptake
Liver microsomes [12] = assay: Glucuronidation metabolism in rat liver microsomes assessed as compound remaining; assay type: ADME, Microsome
Mus musculus [13] = assay: Reduction in amyloid beta (x to 40) in po dosed FVB mouse brain administered as single dose measured at 3 hrs; assay type: functional
CHO [14] = assay: Inhibition of gamma-secretase in CHO cells assessed expressing NotchdeltaE assessed as inhibition of notch cleavage after overnight incubation by luciferase reporter gene assay; assay type: cell-based; conditions: Cricetulus griseus
[15] = Plasma concentration in FVB mouse at 30 mg/kg, po at 3 hrs; assay type: ADME, organism-based; design: dose 30 mg/kg, route oral
Mus musculus [16] = assay: Toxicity in FVB mouse assessed as effect on Hes-1 mRNA level in thymus at 10 mg/kg, po administered as single dose measured at 3 hrs; assay type: organism-based; design: dose 10 mg/kg, route oral; conditions: in vivo
Liver [17] = assay: Glucuronidation metabolism in mouse liver microsomes assessed as compound remaining; assay type: ADME, Microsome
[18] = Plasma concentration in FVB mouse at 1 mg/kg, po at 3 hrs; assay type: ADME, organism-based; design: dose 1 mg/kg, route oral
[19] = Drug uptake in FVB mouse brain at 30 mg/kg, po at 3 hrs; assay type: ADME, organism-based; design: dose 30 mg/kg, route oral; conditions: read-out: Drug uptake
Liver [20] = assay: Oxidative metabolism in mouse liver microsomes assessed as compound remaining; assay type: ADME, Microsome
[21] = target: Gamma-secretase (Homo sapiens) (UniProt Q96BI3+Q9NZ42+Q8WW43+P49768+Q92542+P49810); assay: Selctivity ratio of IC50 for partially purified human gamma-secretase-mediated cleavage of notch fusion protein to IC50 for partially purified human gamma-secretase-mediated cleavage of MBP-APPc125Sw fusion protein; assay type: protein-complex assay
[22] = Plasma concentration in FVB mouse at 10 mg/kg, po at 3 hrs; assay type: ADME, organism-based; design: dose 10 mg/kg, route oral
Mus musculus [23] = assay: Reduction in amyloid beta (x to 40) in FVB mouse cortex at 30 mg/kg, po administered as single dose measured at 3 hrs; assay type: functional; design: scale not given: the % may be the effect or the level left
Mus musculus [24] = assay: Reduction in amyloid beta (x to 40) in FVB mouse cortex at 10 mg/kg, po administered as single dose measured at 3 hrs; assay type: functional; design: scale not given: the % may be the effect or the level left
[25] = Drug uptake in FVB mouse brain at 3 mg/kg, po at 3 hrs; assay type: ADME, organism-based; design: dose 3 mg/kg, route oral; conditions: read-out: Drug uptake
[26] = Drug uptake in FVB mouse brain at 1 mg/kg, po at 3 hrs; assay type: ADME, organism-based; design: dose 1 mg/kg, route oral; conditions: read-out: Drug uptake
[27] = Plasma concentration in FVB mouse at 3 mg/kg, po at 3 hrs; assay type: ADME, organism-based; design: dose 3 mg/kg, route oral
Liver [28] = assay: Oxidative metabolism in dog liver microsomes assessed as compound remaining; assay type: ADME, Canis lupus familiaris, Microsome
Mus musculus [29] = assay: Reduction in amyloid beta (x to 40) in FVB mouse cortex at 3 mg/kg, po administered as single dose measured at 3 hrs; assay type: functional; design: scale not given: the % may be the effect or the level left
Brain [30] = assay: AUC (0 to 3 hrs) in FVB mouse brain at 3 mg/kg, po; assay type: ADME, organism-based; design: time < 3 hr, dose 3 mg/kg, route oral; conditions: in vivo
Homo sapiens [31] = assay: Reduction in amyloid beta in CSF of po dosed healthy human administered as gelatin capsule measured after 5 hrs post administration; assay type: functional; design: scale not given: the % may be the effect or the level left
Liver microsomes [32] = assay: Glucuronidation metabolism in human liver microsomes assessed as compound remaining; assay type: ADME, Microsome
Rattus norvegicus [33] = assay: Hepatic toxicity in rat administered for 6 months as repeated-dosing; assay type: organism-based; conditions: in vivo
Homo sapiens [34] = assay: Hepatic toxicity in po dosed healthy human administered as gelatin capsule; assay type: organism-based; conditions: in vivo
[35] = Systemic clearance in rat; assay type: ADME, organism-based; conditions: in vivo
[36] = Aqueous solubility of the compound; assay type: physicochemical; conditions: buffer
[37] = Octanol-water partition co-efficient, log P of the compound by shake-flask method; assay type: physicochemical
Cynomolgus monkey = assay: Hepatic toxicity in cynomolgus monkey administered for 1 year as repeated-dosing; assay type: organism-based, Macaca fascicularis; conditions: in vivo
CHO [38] = assay: Inhibition of gamma-secretase in CHO cells assessed expressing APPSw assessed as inhibition of amyloid beta(1 to x) secretion after overnight incubation by ELISA; assay type: cell-based; conditions: Cricetulus griseus
Brain [39] = assay: AUC (0 to 3 hrs) in FVB mouse brain at 10 mg/kg, po; assay type: ADME, organism-based; design: time < 3 hr, dose 10 mg/kg, route oral; conditions: in vivo
Plasma [40] = assay: AUC (0 to 3 hrs) in FVB mouse plasma at 1 mg/kg, po; assay type: ADME, organism-based; design: time < 3 hr, dose 1 mg/kg, route oral; conditions: in vivo
CHO [41] = assay: Selctivity ratio of ED50 for gamma-secretase in CHO cells assessed expressing NotchdeltaE assessed as inhibition of notch cleavage to ED50 for gamma-secretase in CHO cells assessed expressing APPSw assessed as inhibition of amyloid beta(1 to x) secretion; assay type: cell-based; conditions: Cricetulus griseus
Mus musculus [42] = assay: Reduction in amyloid beta (x to 40) in FVB mouse cortex at 1 mg/kg, po administered as single dose measured at 3 hrs; assay type: functional; design: scale not given: the % may be the effect or the level left
Mus musculus [43] = assay: Toxicity in FVB mouse assessed as goblet cell hyperplasia in intestine compound administered orally bid for 7 days; assay type: organism-based; conditions: in vivo, po, 168 h
Rattus norvegicus [44] = species: Rattus norvegicus; assay: Systemic clearance in rat relative to hepatic blood flow; assay type: ADME, organism-based, Liver; conditions: in vivo
Mus musculus [45] = assay: Reduction in amyloid beta (x to 40) in FVB mouse cortex at 30 mg/kg, po administered as single dose measured at 6 hrs post administration; assay type: functional; design: scale not given: the % may be the effect or the level left
Mus musculus [46] = assay: Selectivity ratio of EC25 for Reduction in amyloid beta (x to 40) brain to EC25 for change in Hes-1 mRNA level in thymus in po dosed FVB mouse
Mus musculus [47] = assay: Toxicity in FVB mouse assessed as effect on Hes-1 mRNA level in thymus at 30 mg/kg, po administered as single dose measured at 3 hrs; assay type: organism-based; design: dose 30 mg/kg, route oral; conditions: in vivo
Mus musculus [48] = assay: Toxicity in FVB mouse assessed as effect on Hes-1 mRNA level in thymus at 1 mg/kg, po administered as single dose measured at 3 hrs; assay type: organism-based; design: dose 1 mg/kg, route oral; conditions: in vivo
[49] = Oral bioavailability in rat; assay type: ADME, organism-based; conditions: in vivo
Plasma [50] = assay: AUC (0 to 3 hrs) in FVB mouse plasma at 30 mg/kg, po; assay type: ADME, organism-based; design: time < 3 hr, dose 30 mg/kg, route oral; conditions: in vivo
[51] = Passive permebility in wild-type MDCK cells; assay type: ADME, cell-based, Canis lupus familiaris; conditions: dog, read-out: permeability
Brain [52] = assay: AUC (0 to 3 hrs) in FVB mouse brain at 30 mg/kg, po; assay type: ADME, organism-based; design: time < 3 hr, dose 30 mg/kg, route oral; conditions: in vivo

## O=S(=O)(c1ccc(C(F)(F)F)cc1)N1c2cc(F)c(F)cc2-c2n[nH]cc2[C@H]1C1CC1
Brain [1]
  AUC: 0.64 µM
Plasma [2]
  AUC: 0.68 µM
Mus musculus [3]
  Activity: Non-toxic
Liver [4]
  Stability: 90%
Plasma [5]
  AUC: 0.68 µM
Liver microsomes [6]
  Stability: 66%
Mus musculus [7]
  Activity: -17%
Liver microsomes [8]
  Stability: 80%
Gamma-secretase [9]
  IC50: 0.34 nM
Gamma-secretase [10]
  IC50: 6.6 nM
[11]
  concentration at 3 h: 2100 nM
Liver microsomes [12]
  Stability: 90%
Mus musculus [13]
  EC25(unbound): 0.034 nM
CHO [14]
  ED50: 86 nM
[15]
  concentration at 3 h: 3 µM
Mus musculus [16]
  Activity: -14%
Liver [17]
  Stability: 88%
[18]
  concentration at 3 h: 31 nM
[19]
  concentration at 3 h: 7.2 µM
Liver [20]
  Stability: 72%
[21]
  Ratio IC50: 19
[22]
  concentration at 3 h: 900 nM
Mus musculus [23]
  Activity: 64%
Mus musculus [24]
  Activity: 61%
[25]
  concentration at 3 h: 520 nM
[26]
  concentration at 3 h: 120 nM
[27]
  concentration at 3 h: 190 nM
Liver [28]
  Stability: 75%
Mus musculus [29]
  Activity: 48%
Brain [30]
  AUC: 2.1 µM
Homo sapiens [31]
  Activity: 31%
Liver microsomes [32]
  Stability: 90%
Rattus norvegicus [33]
  Activity: Non-toxic
Homo sapiens [34]
  Activity: Toxic
[35]
  clearance: 22 mL/min/kg
[36]
  solubility: 3 µg/mL (≈ 6.59 µM)
[37]
  logP: 3.91
Cynomolgus monkey
  Activity: Non-toxic
CHO [38]
  ED50: 1.1 nM
Brain [39]
  AUC: 7 µM
Plasma [40]
  AUC: 0.19 µM
CHO [41]
  Ratio ED50: 78
Mus musculus [42]
  Activity: 32%
Mus musculus [43]
  Activity: Non-toxic
Rattus norvegicus [44]
  CLH: 40%
Mus musculus [45]
  Activity: 82%
Mus musculus [46]
  Selectivity ratio: 57
Mus musculus [47]
  Activity: -25%

## O=S(=O)(c1ccc(C(F)(F)F)nc1)N1c2ccc(F)cc2-c2n[nH]cc2[C@H]1C1CC1
Brain [1]
  AUC: 0.24 µM
Plasma [2]
  AUC: 0.57 µM
Liver [4]
  Stability: 87%
Plasma [5]
  AUC: 4.7 µM
Liver microsomes [6]
  Stability: 81%
Mus musculus [7]
  Activity: -21%
Liver microsomes [8]
  Stability: 85%
Gamma-secretase [9]
  IC50: 0.1 nM
Gamma-secretase [10]
  IC50: 1.7 nM
[11]
  concentration at 3 h: 1000 nM
Liver microsomes [12]
  Stability: 91%
CHO [14]
  ED50: 20 nM
Mus musculus [48]
  Activity: 11%
[15]
  concentration at 3 h: 3.5 µM
Mus musculus [16]
  Activity: -44%
Liver [17]
  Stability: 90%
[18]
  concentration at 3 h: 14 nM
[19]
  concentration at 3 h: 2.6 µM
Liver [20]
  Stability: 80%
[21]
  Ratio IC50: 17
[22]
  concentration at 3 h: 1200 nM
Mus musculus [23]
  Activity: 62%
Mus musculus [24]
  Activity: 61%
[25]
  concentration at 3 h: 220 nM
[26]
  concentration at 3 h: 45 nM
[27]
  concentration at 3 h: 79 nM
[49]
  bioavailability: 92%
Liver [28]
  Stability: 80%
Mus musculus [29]
  Activity: 56%
Brain [30]
  AUC: 0.92 µM
Liver microsomes [32]
  Stability: 91%
Homo sapiens [34]
  Activity: Toxic
[35]
  clearance: 23 mL/min/kg
[36]
  solubility: 100 µg/mL (≈ 228 µM)
[37]
  logP: 3.65
Plasma [50]
  AUC: 12 µM
CHO [38]
  ED50: 0.28 nM
Brain [39]
  AUC: 4.1 µM
Plasma [40]
  AUC: 0.14 µM
CHO [41]
  Ratio ED50: 71
Mus musculus [42]
  Activity: 34%
Rattus norvegicus [44]
  CLH: 42%
[51]
  Papp: 8.8 ×10⁻⁶ cm/s
Mus musculus [47]
  Activity: -46%
Brain [52]
  AUC: 11 µM
